Publication PMC7413254 (Nature Communications, 2020)
“And” between values parts separate entries of the source, which are not always exact repeats. Equal entries are not always repeated. Where two headings read alike, the source gives them in different places.

Assays:
[1] = target: T1, PfCRT^3D7 (Plasmodium falciparum, UniProt Q8IBZ9); experiment: cell-based; type: cell-based; settings: for Uptake of [3H]CQ (% PfCRT3D7 control), trans-stimulation / PfCRT-mediated [3H]CQ transport, trans-stimulation (% PfCRT3D7 control): PfCRT3D7 oocytes; for Uptake of [3H]CQ (% PfCRT3D7 control), trans-stimulation: total [3H]CQ transport, normalised to the oocyte type control; for PfCRT-mediated [3H]CQ transport, trans-stimulation (% PfCRT3D7 control): normalised to oocyte type control
Method in brief: (§1)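 Oocytes (ten per treatment, ≥4 independent frogs/days) were preloaded by injecting VF-6 in 25 nL ND96 at pH 5.0, 5.5, 6.0 or 7.0, or Na^+-free choline buffer, then uptake run 1.5 h, 27.5 °C, ND96 pH 5.5 by default. Internal concentrations assumed ~400 nL oocyte volume.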

[2] = target: T2, PfNT1 (Plasmodium falciparum, UniProt Q8IDM6); experiment: cell-based; type: cell-based; settings: for Uptake of [3H]CQ (% PfNT1 control), trans-stimulation: PfNT1 oocytes, total [3H]CQ transport, normalised to the oocyte type control
T2 construct: expressed in transfected cells; host or cells: Xenopus laevis oocytes (stage V-VI), cRNA-injected
Method in brief: as §1

[3] = tested on: non-expressing oocytes; experiment: cells; type: cell-based, Xenopus laevis; settings: for Uptake of [3H]CQ (% non-expressing oocyte control), cis-inhibition: non-expressing oocytes, total [3H]CQ transport, normalised to the oocyte type control
From the text: (§2) The orientation of PfCRT in the parasite’s DV membrane, and also in the oocyte plasma membrane, is such that its N- and C-termini extend into the cytosol. The oocytes were suspended in a reaction buffer adjusted to pH 5.5 to mimic the pH of the DV lumen[1],[2]. In this scenario, the transport of a substrate via PfCRT from the acidic extracellular solution into the oocyte cytosol[15] is analogous to the parasite’s PfCRT-mediated efflux of a substrate from the acidic DV and into the cytosol. Unless specified otherwise, this is the direction in which substrate transport was measured in the oocyte assays.
(§3) Unless specified otherwise, the transport assays were conducted over 1.5 h at 27.5 °C and the reaction buffer was ND96 (96 mM NaCl, 2 mM KCl, 1 mM MgCl2, 1.8 mM CaCl2, 10 mM MES and 10 mM Tris-base) at pH 5.5.
(§4) Ten oocytes were washed twice with the relevant ND96 buffer. […] The assay was terminated by removing the reaction buffer and washing the oocytes with ice-cold ND96 buffer. The oocytes were lysed in 10% (w/v) sodium dodecyl sulfate (SDS) and the radioactivity accumulated within each oocyte was measured with a MicroBeta^2 microplate liquid scintillation analyser (PerkinElmer).
(§5) At least four independent experiments were performed (on different days and using oocytes from different frogs), and within each experiment measurements were made from ten oocytes per treatment.

[4] = tested on: non-expressing oocytes; type: cell-based, Xenopus laevis; settings: for Uptake of [3H]CQ (% non-expressing oocyte control), trans-stimulation: non-expressing oocytes, total [3H]CQ transport, normalised to the oocyte type control
Method in brief: as §1

[5] = target: T1, PfCRT^3D7; experiment: cell-based; type: cell-based; settings: for Uptake of [3H]CQ (% PfCRT3D7 control), cis-inhibition: PfCRT3D7 oocytes, total [3H]CQ transport, normalised to the oocyte type control
From the text: as §2, §3, §4, §5

[6] = target: T3, PfCRT^Dd2 (Plasmodium falciparum, UniProt Q9N623, A220S/I356T/K76T/M74I/N326S/N75E/Q271E/R371I); experiment: cell-based; type: cell-based; settings: for Uptake of [3H]CQ (% PfCRTDd2 control), trans-stimulation / PfCRT-mediated [3H]CQ transport, trans-stimulation (% PfCRTDd2 control): PfCRTDd2 oocytes; for Uptake of [3H]CQ (% PfCRTDd2 control), trans-stimulation: total [3H]CQ transport, normalised to the oocyte type control; for PfCRT-mediated [3H]CQ transport, trans-stimulation (% PfCRTDd2 control): normalised to oocyte type control; for [3H]CQ transport (% PfCRTDd2 control), trans-stimulation, PfCRTDd2: PfCRT-mediated component (background subtracted), mean ± SEM, SEM
Method in brief: as §1

[7] = target: T4, PfCRT^Ecu1110 (Plasmodium falciparum, UniProt Q9N623, A220S/I356L/K76T/N326D); experiment: cell-based; type: cell-based; settings: for Uptake of [3H]CQ (% PfCRTEcu1110 control), trans-stimulation / PfCRT-mediated [3H]CQ transport, trans-stimulation (% PfCRTEcu1110 control): PfCRTEcu1110 oocytes; for Uptake of [3H]CQ (% PfCRTEcu1110 control), trans-stimulation: total [3H]CQ transport, normalised to the oocyte type control; for PfCRT-mediated [3H]CQ transport, trans-stimulation (% PfCRTEcu1110 control): normalised to oocyte type control; for [3H]CQ transport (% PfCRTDd2 control), trans-stimulation, PfCRTEcu1110: PfCRT-mediated component (background subtracted), sheet title says normalised to PfCRTDd2 control, mean ± SEM, SEM
Method in brief: as §1

[8] = target: T3, PfCRT^Dd2; experiment: [3H]CQ uptake into Xenopus oocytes, cis-inhibition by unlabelled solute; type: cell-based; settings: PfCRTDd2 oocytes, background [3H]CQ accumulation subtracted, normalised to oocyte type control
Method in brief: (§6)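 Each treatment used ten oocytes, repeated in at least four experiments on different days with oocytes from different frogs. Conditions: ND96 pH 5.5, 27.5 °C, 1.5 h; read-out by scintillation counting.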

[9] = target: T4, PfCRT^Ecu1110; experiment: as above; type: cell-based; settings: for Uptake of [3H]CQ (% PfCRTEcu1110 control), cis-inhibition / PfCRT-mediated [3H]CQ transport, cis-inhibition (% PfCRTEcu1110 control): PfCRTEcu1110 oocytes; for Uptake of [3H]CQ (% PfCRTEcu1110 control), cis-inhibition: total [3H]CQ transport, normalised to the oocyte type control; for PfCRT-mediated [3H]CQ transport, cis-inhibition (% PfCRTEcu1110 control): background [3H]CQ accumulation subtracted, normalised to oocyte type control
Method in brief: as §6

[10] = [test solute]i = 45 mM (30 mM for some solutes due to solubility)
[11] = [test solute]i = 5 mM (intracellular)
[12] = [test solute]i = 45 mM (intracellular; 30 mM for some solutes due to solubility)
[13] = [test solute]i = 5 mM (injected)

T4 sequence (Q9N623 whole entry A220S/I356L/K76T/N326D): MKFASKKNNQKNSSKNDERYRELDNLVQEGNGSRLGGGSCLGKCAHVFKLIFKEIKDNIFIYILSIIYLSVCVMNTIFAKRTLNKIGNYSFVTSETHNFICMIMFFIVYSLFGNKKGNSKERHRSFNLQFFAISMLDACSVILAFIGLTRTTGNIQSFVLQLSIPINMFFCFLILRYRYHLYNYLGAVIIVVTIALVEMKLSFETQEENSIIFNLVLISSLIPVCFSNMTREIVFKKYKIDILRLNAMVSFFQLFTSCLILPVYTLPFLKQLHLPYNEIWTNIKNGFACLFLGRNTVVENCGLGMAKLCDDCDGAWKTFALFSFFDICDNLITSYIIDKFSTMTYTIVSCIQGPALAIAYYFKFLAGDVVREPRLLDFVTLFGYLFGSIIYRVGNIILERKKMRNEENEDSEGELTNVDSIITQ
T1 sequence (Q8IBZ9 59-398): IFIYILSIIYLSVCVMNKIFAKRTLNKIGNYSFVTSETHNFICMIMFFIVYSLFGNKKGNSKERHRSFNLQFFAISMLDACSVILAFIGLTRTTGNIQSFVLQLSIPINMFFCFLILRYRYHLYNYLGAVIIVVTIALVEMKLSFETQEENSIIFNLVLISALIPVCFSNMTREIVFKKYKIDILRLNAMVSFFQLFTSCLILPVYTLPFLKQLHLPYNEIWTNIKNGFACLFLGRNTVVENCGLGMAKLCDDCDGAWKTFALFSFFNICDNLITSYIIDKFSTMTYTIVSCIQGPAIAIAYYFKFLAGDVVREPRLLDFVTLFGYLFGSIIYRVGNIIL
T3 sequence (Q9N623 whole entry A220S/I356T/K76T/M74I/N326S/N75E/Q271E/R371I): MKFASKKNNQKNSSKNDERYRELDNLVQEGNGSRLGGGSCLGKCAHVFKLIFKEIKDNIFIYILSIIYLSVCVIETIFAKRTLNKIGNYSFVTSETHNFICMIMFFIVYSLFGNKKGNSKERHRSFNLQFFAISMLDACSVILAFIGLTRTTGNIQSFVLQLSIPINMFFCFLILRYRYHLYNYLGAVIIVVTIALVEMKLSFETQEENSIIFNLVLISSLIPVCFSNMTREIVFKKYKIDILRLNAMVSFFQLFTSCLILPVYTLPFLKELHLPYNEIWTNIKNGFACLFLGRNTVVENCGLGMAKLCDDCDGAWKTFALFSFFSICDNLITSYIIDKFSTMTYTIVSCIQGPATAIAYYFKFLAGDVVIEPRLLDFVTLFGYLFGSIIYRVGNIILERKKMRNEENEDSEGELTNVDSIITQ
T2 sequence (Q8IDM6 whole entry): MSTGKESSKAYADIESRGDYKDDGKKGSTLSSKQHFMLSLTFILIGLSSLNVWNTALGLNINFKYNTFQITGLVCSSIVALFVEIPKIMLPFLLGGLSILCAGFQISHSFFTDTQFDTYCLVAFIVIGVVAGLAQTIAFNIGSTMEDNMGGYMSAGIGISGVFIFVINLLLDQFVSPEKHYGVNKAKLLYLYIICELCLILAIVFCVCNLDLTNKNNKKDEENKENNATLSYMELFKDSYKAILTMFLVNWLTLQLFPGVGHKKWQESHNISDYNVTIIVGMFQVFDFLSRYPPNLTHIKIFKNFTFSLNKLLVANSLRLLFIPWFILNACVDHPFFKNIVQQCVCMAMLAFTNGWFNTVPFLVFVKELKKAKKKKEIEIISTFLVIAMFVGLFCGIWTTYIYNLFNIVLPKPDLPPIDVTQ

In the case of `Cc1ncc(C[n+]2csc(CCO)c2C)c(N)n1` [Thiamine (Vitamin B1)], the “PfCRT-mediated [3H]CQ transport, trans-stimulation by injected solute, PfCRT3D7” value [1] is reported as 0.1 ± 0.01, the “Total [3H]CQ transport, trans-stimulation by injected solute” value (shortened to “Total … by injected solute”) [1] is reported as 3.0 ± 0.05 and 3.0 ± 0.03 and the “Trans-stimulation data: PfCRT-mediated [3H]CQ transport” value [1] is reported as 99 ± 2.9 and 98 ± 1.9. The “Trans-stimulation data: total [3H]CQ transport, normalised to the oocyte type control” value [1] was 101 ± 3.5 and 100 ± 3.6, the “Total … by injected solute” value [2] was 3.7 ± 0.08 and 2.7 ± 0.06 and the “Trans-stimulation data: total [3H]CQ transport, normalised to the oocyte type control” value [2] was 101 ± 3.9. The “Cis-inhibition data: total [3H]CQ transport, normalised to the oocyte type control” value [3] was 99 ± 5.1 and 98 ± 5.2 and 100 ± 4.6, the “Total [3H]CQ transport, cis-inhibition by solute” value [3] was 2.7 ± 0.05 and 4.2 ± 0.03 and 2.2 ± 0.06 and the “Total … by injected solute” value [4] was 2.9 ± 0.04 and 3.9 ± 0.05. For the same compound, the “Trans-stimulation data: total [3H]CQ transport, normalised to the oocyte type control” value [4] was 100 ± 3.7 and 99 ± 4.8, the “Cis-inhibition data: total [3H]CQ transport, normalised to the oocyte type control” value [5] was 99 ± 9.3 and 99 ± 3.7 and 99 ± 3.0 and the “Total [3H]CQ transport, cis-inhibition by solute” value [5] was 2.8 ± 0.03 and 2.7 ± 0.07 and 2.8 ± 0.05.

In the case of PPVQ [PQ-4], the “Uptake of [3H]CQ (% PfCRT3D7 control), trans-stimulation” value ([1]; [test solute]i = 5 mM) is reported as 134 ± 2.5 % PfCRT3D7 control, the “Uptake of [3H]CQ (% PfCRT3D7 control), trans-stimulation” value [1, 10] is reported as 165 ± 4.2 % PfCRT3D7 control and the “PfCRT-mediated [3H]CQ transport, trans-stimulation (% PfCRT3D7 control)” value [1, 11] is reported as 129 ± 2.1 % PfCRT3D7 control. For the same compound, the “PfCRT-mediated [3H]CQ transport, trans-stimulation (% PfCRT3D7 control)” value [1, 12] was 159 ± 5.2 % PfCRT3D7 control, the “Uptake of [3H]CQ (% PfNT1 control), trans-stimulation” value ([2]; [test solute]i = 5 mM) was 100 ± 2.5 % PfNT1 control and the “Uptake of [3H]CQ (% PfNT1 control), trans-stimulation” value [2, 10] was 99 ± 3.2 % PfNT1 control. The “Uptake of [3H]CQ (% PfCRTDd2 control), trans-stimulation” value ([6]; [test solute]i = 5 mM) was 100 ± 3.2 % PfCRTDd2 control, the “Uptake of [3H]CQ (% PfCRTDd2 control), trans-stimulation” value [6, 10] was 115 ± 2.9 % PfCRTDd2 control and the “PfCRT-mediated [3H]CQ transport, trans-stimulation (% PfCRTDd2 control)” value [6, 11] was 98 ± 4.2 % PfCRTDd2 control. The “PfCRT-mediated [3H]CQ transport, trans-stimulation (% PfCRTDd2 control)” value [6, 12] was 110 ± 1.1 % PfCRTDd2 control, the “[3H]CQ transport (% PfCRTDd2 control), trans-stimulation, PfCRTDd2” value [6, 13] was 98 ± 4.2 % PfCRTDd2 control and the “[3H]CQ transport (% PfCRTDd2 control), trans-stimulation, PfCRTDd2” value [6, 10] was 110 ± 1.1 % PfCRTDd2 control. The “Uptake of [3H]CQ (% PfCRTEcu1110 control), trans-stimulation” value ([7]; [test solute]i = 5 mM) was 124 ± 2.9 % PfCRTEcu1110 control, the “Uptake of [3H]CQ (% PfCRTEcu1110 control), trans-stimulation” value [7, 10] was 138 ± 3.2 % PfCRTEcu1110 control and the “PfCRT-mediated [3H]CQ transport, trans-stimulation (% PfCRTEcu1110 control)” value [7, 11] was 120 ± 3.2 % PfCRTEcu1110 control. For the same compound, the “PfCRT-mediated [3H]CQ transport, trans-stimulation (% PfCRTEcu1110 control)” value [7, 12] was 132 ± 1.1 % PfCRTEcu1110 control, the “[3H]CQ transport (% PfCRTDd2 control), trans-stimulation, PfCRTEcu1110” value [7, 13] was 36 ± 1.3 % PfCRTEcu1110 control and the “[3H]CQ transport (% PfCRTDd2 control), trans-stimulation, PfCRTEcu1110” value [7, 10] was 40 ± 1.3 % PfCRTEcu1110 control. The “Uptake of [3H]CQ (% non-expressing oocyte control), cis-inhibition” value ([3]; [test solute] = 1 mM) was 99 ± 5.3 % non-expressing oocyte control, the “Uptake of [3H]CQ (% non-expressing oocyte control), cis-inhibition” value ([3]; [test solute] = 2 mM) was 100 ± 3.7 % non-expressing oocyte control and the “Uptake of [3H]CQ (% non-expressing oocyte control), trans-stimulation” value ([4]; [test solute]i = 5 mM) was 99 ± 3.4 % non-expressing oocyte control. For the same compound, the “Uptake of [3H]CQ (% non-expressing oocyte control), trans-stimulation” value [4, 10] was 100 ± 2.7 % non-expressing oocyte control, the “PfCRT-mediated [3H]CQ transport, cis-inhibition (% PfCRTDd2 control)” value ([8]; [test solute] = 0.5 mM) was 68 ± 3.7 % PfCRTDd2 control and the “PfCRT-mediated [3H]CQ transport, cis-inhibition (% PfCRTDd2 control)” value ([8]; [test solute] = 1 mM) was 59 ± 2.1 % PfCRTDd2 control. For the same compound, the “PfCRT-mediated [3H]CQ transport, cis-inhibition (% PfCRTDd2 control)” value ([8]; [test solute] = 2 mM) was 37 ± 2.0 % PfCRTDd2 control, the “Uptake of [3H]CQ (% PfCRTEcu1110 control), cis-inhibition” value ([9]; [test solute] = 0.5 mM) was 67 ± 2.1 % PfCRTEcu1110 control and the “Uptake of [3H]CQ (% PfCRTEcu1110 control), cis-inhibition” value ([9]; [test solute] = 1 mM) was 56 ± 2.8 % PfCRTEcu1110 control. The “Uptake of [3H]CQ (% PfCRTEcu1110 control), cis-inhibition” value ([9]; [test solute] = 2 mM) was 48 ± 4.8 % PfCRTEcu1110 control, the “PfCRT-mediated [3H]CQ transport, cis-inhibition (% PfCRTEcu1110 control)” value ([9]; [test solute] = 0.5 mM) was 61 ± 3.1 % PfCRTEcu1110 control and the “PfCRT-mediated [3H]CQ transport, cis-inhibition (% PfCRTEcu1110 control)” value ([9]; [test solute] = 1 mM) was 51 ± 1.3 % PfCRTEcu1110 control. The “PfCRT-mediated [3H]CQ transport, cis-inhibition (% PfCRTEcu1110 control)” value ([9]; [test solute] = 2 mM) was 41 ± 3.2 % PfCRTEcu1110 control, the “[3H]CQ transport (% PfCRTEcu1110 control), cis-inhibition, PfCRTEcu1110” value ([9]; cis-inhibition, [test solute] = 2 mM, PfCRT-mediated component (background subtracted), sheet title says normalised to PfCRTDd2 control, mean ± SEM, SEM) was 13 ± 0.6 % PfCRTEcu1110 control and the “Uptake of [3H]CQ (% PfCRT3D7 control), cis-inhibition” value ([5]; [test solute] = 0.5 mM) was 99 ± 3.9 % PfCRT3D7 control. For the same compound, the “Uptake of [3H]CQ (% PfCRT3D7 control), cis-inhibition” value ([5]; [test solute] = 1 mM) was 99 ± 6.3 % PfCRT3D7 control and the “Uptake of [3H]CQ (% PfCRT3D7 control), cis-inhibition” value ([5]; [test solute] = 2 mM) was 99 ± 5.3 % PfCRT3D7 control.
